The source of these data is ChEMBL document CHEMBL3991601, “The target landscape of clinical kinase drugs” (Science, 2017).

Active and inactive are the calls of the source.

Assay [1] deals with T1, Very long-chain specific acyl-CoA dehydrogenase, mitochondrial (Homo sapiens, UniProt P49748).
T1 sequence (P49748 whole entry): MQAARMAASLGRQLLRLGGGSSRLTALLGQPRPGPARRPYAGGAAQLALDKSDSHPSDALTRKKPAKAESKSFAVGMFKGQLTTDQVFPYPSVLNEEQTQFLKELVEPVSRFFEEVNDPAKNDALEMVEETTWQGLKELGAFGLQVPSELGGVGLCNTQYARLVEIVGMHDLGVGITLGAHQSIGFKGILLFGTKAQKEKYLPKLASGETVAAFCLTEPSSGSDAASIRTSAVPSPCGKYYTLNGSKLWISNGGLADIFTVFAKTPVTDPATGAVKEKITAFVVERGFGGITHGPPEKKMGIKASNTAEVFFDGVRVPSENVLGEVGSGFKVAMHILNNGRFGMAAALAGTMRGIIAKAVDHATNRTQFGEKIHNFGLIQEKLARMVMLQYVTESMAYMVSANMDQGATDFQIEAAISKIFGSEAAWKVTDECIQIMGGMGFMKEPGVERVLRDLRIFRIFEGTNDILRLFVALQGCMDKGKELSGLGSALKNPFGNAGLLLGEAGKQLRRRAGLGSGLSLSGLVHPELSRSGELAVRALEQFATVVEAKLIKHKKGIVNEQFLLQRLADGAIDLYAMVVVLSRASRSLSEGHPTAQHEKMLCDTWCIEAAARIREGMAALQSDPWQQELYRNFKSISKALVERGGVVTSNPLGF

In assay [2] the target is T2, Serine/threonine-protein kinase A-Raf (Homo sapiens, UniProt P10398).
T2 sequence (P10398 whole entry): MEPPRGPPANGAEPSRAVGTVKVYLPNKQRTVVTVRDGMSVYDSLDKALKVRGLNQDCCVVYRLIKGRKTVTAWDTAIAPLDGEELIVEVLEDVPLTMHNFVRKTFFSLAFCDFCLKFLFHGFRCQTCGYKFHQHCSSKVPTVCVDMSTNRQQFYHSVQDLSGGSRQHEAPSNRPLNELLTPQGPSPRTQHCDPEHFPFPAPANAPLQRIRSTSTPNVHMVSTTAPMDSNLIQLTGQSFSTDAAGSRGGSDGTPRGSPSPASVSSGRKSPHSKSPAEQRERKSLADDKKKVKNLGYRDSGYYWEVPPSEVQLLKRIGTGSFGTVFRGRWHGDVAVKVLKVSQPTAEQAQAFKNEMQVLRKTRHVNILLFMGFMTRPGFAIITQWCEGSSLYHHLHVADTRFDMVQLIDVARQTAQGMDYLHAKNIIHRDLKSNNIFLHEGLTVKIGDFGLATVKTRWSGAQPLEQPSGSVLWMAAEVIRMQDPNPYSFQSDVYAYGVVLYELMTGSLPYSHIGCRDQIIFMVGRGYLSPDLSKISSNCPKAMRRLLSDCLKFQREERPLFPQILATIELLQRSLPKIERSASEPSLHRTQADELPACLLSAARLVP

Assay [3] has as its target Putative heat shock protein HSP 90-beta 2 (Homo sapiens, UniProt Q58FF8).
Assay [4] deals with T3, Interleukin-1 receptor-associated kinase 3 (Homo sapiens, UniProt Q9Y616).
T3 sequence (Q9Y616 whole entry): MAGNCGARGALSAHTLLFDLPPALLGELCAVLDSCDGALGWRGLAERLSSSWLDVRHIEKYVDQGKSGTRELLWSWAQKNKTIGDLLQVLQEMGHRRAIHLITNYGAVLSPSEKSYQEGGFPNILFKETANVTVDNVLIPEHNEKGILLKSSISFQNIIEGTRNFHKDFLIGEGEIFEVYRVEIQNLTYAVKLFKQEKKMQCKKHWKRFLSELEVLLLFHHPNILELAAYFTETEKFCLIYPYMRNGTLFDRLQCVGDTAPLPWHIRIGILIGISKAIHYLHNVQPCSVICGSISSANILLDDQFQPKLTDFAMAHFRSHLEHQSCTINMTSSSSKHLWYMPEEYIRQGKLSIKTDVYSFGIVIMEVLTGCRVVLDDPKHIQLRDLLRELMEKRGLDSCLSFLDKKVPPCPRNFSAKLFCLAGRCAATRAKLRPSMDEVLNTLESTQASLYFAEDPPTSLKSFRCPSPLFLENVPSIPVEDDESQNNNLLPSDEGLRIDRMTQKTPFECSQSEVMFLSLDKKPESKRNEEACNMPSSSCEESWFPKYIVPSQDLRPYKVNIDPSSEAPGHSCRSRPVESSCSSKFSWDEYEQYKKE

A further assay concerns the target LIM domain kinase 1 (Homo sapiens, UniProt P53667).
For assay [5], the target named is Mitogen-activated protein kinase 11 (Homo sapiens, UniProt Q15759).
Mitogen-activated protein kinase 11, sequence (Q15759 whole entry): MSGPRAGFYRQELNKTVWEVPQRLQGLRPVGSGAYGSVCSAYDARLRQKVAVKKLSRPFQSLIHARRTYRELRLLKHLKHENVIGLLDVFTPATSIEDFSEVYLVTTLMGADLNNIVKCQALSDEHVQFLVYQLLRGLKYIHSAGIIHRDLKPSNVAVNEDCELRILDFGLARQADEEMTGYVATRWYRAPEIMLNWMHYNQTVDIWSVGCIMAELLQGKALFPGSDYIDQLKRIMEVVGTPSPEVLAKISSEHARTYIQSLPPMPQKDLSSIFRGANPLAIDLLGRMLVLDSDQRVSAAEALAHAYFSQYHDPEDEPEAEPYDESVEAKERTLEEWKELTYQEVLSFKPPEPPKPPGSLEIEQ
In the next assay the target is T4, Pyridoxal kinase (Homo sapiens, UniProt O00764).
T4 sequence (O00764 whole entry): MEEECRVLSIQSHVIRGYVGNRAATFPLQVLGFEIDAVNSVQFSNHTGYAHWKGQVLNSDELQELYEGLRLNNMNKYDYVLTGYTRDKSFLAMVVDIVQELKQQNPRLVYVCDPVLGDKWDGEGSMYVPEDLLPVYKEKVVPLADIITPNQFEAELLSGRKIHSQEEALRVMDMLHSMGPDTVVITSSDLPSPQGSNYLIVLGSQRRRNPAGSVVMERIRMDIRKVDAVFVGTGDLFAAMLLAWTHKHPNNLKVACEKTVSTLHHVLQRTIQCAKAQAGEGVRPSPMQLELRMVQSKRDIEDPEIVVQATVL

In assay [6] the target is Serine/threonine-protein kinase pim-1 (Homo sapiens, UniProt P11309).
Serine/threonine-protein kinase pim-1, sequence (P11309 whole entry): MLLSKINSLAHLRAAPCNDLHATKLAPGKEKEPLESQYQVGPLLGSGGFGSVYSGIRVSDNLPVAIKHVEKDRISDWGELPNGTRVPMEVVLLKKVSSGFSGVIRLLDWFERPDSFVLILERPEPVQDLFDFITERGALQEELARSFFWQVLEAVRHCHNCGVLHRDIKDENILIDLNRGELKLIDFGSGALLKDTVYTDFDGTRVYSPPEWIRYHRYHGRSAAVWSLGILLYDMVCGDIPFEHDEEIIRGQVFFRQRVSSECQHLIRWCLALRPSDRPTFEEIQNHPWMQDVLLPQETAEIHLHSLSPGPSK
Assay [7] addresses Structural maintenance of chromosomes protein 2 (Homo sapiens, UniProt O95347).
Assay [8] addresses T5, Succinate--CoA ligase [ADP-forming] subunit beta, mitochondrial (Homo sapiens, UniProt Q9P2R7).
T5 sequence (Q9P2R7 whole entry): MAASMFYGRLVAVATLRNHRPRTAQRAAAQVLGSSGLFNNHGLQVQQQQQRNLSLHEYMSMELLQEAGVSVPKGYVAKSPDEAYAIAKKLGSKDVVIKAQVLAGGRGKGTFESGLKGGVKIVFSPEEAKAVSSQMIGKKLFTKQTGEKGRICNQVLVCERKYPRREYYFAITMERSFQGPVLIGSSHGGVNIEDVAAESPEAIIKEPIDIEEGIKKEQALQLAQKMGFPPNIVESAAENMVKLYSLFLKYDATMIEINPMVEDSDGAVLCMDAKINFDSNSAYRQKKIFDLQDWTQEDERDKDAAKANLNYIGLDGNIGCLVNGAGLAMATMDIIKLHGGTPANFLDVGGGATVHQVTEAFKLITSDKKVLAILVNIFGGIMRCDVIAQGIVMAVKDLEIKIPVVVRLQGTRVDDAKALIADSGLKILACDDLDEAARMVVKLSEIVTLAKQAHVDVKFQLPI
Note: in the data inactive means no Kd found up to 30 µM.

Structural maintenance of chromosomes protein 2, sequence (O95347 whole entry): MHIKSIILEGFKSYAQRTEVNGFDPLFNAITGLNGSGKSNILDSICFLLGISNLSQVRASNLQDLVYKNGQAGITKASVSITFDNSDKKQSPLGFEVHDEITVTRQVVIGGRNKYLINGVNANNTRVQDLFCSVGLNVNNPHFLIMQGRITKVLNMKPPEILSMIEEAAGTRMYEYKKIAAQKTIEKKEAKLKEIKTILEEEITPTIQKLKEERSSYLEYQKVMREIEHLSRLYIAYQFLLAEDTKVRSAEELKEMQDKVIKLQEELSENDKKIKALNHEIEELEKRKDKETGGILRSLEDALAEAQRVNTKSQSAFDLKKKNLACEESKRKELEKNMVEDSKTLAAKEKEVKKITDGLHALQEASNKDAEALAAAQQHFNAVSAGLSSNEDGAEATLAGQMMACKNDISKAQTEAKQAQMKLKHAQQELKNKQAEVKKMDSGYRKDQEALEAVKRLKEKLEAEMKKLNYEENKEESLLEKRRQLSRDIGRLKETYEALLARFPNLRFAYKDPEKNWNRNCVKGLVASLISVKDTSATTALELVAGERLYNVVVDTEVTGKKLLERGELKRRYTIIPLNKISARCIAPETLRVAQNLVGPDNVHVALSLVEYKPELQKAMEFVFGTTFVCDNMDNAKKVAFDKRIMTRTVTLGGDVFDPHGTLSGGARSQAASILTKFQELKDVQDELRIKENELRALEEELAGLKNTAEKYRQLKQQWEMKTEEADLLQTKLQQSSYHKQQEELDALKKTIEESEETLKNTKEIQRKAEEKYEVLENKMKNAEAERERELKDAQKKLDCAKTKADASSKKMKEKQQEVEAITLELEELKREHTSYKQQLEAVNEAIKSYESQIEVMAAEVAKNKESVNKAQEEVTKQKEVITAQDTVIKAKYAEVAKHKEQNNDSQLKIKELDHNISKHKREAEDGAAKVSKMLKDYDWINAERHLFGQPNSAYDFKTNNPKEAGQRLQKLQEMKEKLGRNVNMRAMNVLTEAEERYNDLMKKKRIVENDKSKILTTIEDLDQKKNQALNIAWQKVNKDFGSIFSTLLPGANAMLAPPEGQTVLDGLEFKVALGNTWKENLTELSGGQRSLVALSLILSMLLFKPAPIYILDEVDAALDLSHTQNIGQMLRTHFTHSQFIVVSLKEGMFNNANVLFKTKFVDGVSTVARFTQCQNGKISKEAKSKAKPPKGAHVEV
LIM domain kinase 1, sequence (P53667 whole entry, the tested form may be a part): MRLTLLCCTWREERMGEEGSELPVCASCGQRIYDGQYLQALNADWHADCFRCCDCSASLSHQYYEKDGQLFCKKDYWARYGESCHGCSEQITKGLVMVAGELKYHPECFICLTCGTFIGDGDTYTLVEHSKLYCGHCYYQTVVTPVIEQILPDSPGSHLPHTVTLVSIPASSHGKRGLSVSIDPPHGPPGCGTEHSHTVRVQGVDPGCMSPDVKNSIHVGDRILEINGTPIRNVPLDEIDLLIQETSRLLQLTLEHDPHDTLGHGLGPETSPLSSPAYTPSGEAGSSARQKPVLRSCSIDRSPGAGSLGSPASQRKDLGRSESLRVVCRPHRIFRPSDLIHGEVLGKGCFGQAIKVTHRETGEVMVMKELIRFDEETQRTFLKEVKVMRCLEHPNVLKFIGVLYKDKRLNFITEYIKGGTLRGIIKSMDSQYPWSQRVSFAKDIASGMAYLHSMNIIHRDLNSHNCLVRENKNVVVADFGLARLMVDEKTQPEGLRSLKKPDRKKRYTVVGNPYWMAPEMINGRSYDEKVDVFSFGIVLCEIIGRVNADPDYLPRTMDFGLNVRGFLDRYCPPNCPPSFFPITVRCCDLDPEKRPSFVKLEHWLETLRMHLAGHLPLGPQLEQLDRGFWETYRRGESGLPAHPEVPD
Putative heat shock protein HSP 90-beta 2, sequence (Q58FF8 whole entry): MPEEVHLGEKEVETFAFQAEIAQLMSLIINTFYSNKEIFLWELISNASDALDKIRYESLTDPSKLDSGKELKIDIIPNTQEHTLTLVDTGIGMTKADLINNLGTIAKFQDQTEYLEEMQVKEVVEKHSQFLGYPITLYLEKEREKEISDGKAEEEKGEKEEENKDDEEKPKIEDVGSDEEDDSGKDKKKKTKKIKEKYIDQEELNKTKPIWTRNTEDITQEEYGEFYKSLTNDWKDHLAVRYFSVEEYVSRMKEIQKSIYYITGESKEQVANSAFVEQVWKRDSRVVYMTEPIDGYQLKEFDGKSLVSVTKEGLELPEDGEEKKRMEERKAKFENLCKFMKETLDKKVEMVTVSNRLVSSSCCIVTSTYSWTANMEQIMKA

For `COc1cc(N2CCC(N3CCN(C)CC3)CC2)ccc1Nc1ncnc(Nc2ccccc2S(=O)(=O)C(C)C)n1` [ASP-3026], the Kd (commonly the equilibrium constant for the complex coming apart) in assay [1] was > 30 µM (inactive); in [2], > 30 µM (inactive); in assay [3], > 30 µM (inactive); in assay [4], > 30 µM (inactive); on LIM domain kinase 1 it was 3.98 µM (active); in assay [5] it was > 30 µM (inactive). Also, the Kd (at Pyridoxal kinase; in assay [6]; in assay [7]; in [8]) was > 30 µM (inactive) in each case.
For `Cc1cc([C@@H](C)Nc2ccccc2C(=O)O)c2nc(N3CCOCC3)cc(=O)n2c1` [AZD-6482], the Kd (in assay [1]; in assay [2]; in assay [3]; in [4]; on LIM domain kinase 1; in assay [5]) was > 30 µM (inactive) each time. Further, the Kd (on Pyridoxal kinase; in assay [6]; in [7]; in assay [8]) was > 30 µM (inactive) in each case.
Regarding `CC(C)Nc1cc(-c2c[nH]c(C(=O)N[C@H](CO)c3cccc(Cl)c3)c2)c(Cl)cn1` [ULIXERTINIB], the Kd (in assay [1]; in assay [2]; in assay [3]; in assay [4]; on LIM domain kinase 1; in [5]) was > 30 µM (inactive) throughout. The Kd (on Pyridoxal kinase; in assay [6]; in assay [7]; in [8]) was > 30 µM (inactive) in each case.
As to `O=c1sn(-c2cccc3ccccc23)c(=O)n1Cc1ccccc1` [TIDEGLUSIB], the Kd (in assay [1]; in assay [2]; in [3]; in [4]; at LIM domain kinase 1; in [5]) was > 30 µM (inactive) each time. The Kd (at Pyridoxal kinase; in [6]; in [7]; in [8]) was > 30 µM (inactive) in each case.
With `Cc1ccc(-n2nc(C(C)(C)C)cc2NC(=O)NCc2cc(F)ccc2Oc2ccc3c(cnn3CCO)c2)cc1` [PEXMETINIB], the Kd in [1] is > 30 µM (inactive); in [2] it was > 30 µM (inactive); in assay [3], > 30 µM (inactive); in assay [4], > 30 µM (inactive); at LIM domain kinase 1 it was > 30 µM (inactive); in [5], 0.192 µM (active). Also, the Kd (on Pyridoxal kinase; in assay [6]; in assay [7]; in [8]) was > 30 µM (inactive) each time.
`CCN1CCN(Cc2ccc(-c3cc4c(N[C@H](C)c5ccccc5)ncnc4[nH]3)cc2)CC1` [AEE-788]: the Kd in assay [1] was > 30 µM (inactive); in assay [2] it was > 30 µM (inactive); in assay [3] it was > 30 µM (inactive); in [4], > 30 µM (inactive); on LIM domain kinase 1, 0.632 µM (active); in assay [5], > 30 µM (inactive). Besides, the Kd (at Pyridoxal kinase; in assay [6]; in assay [7]; in [8]) was > 30 µM (inactive) throughout.
With `Cc1ccc(NC(=O)c2ccc(CN3CC[C@H](N(C)C)C3)c(C(F)(F)F)c2)cc1Nc1nccc(-c2cncnc2)n1` [BAFETINIB], the Kd in assay [1] is > 30 µM (inactive); in [2] it was 2.89 µM (active); in [3], > 30 µM (inactive); in assay [4] it was > 30 µM (inactive); at LIM domain kinase 1 it was > 30 µM (inactive); in assay [5], 1.72 µM. Besides, the Kd (on Pyridoxal kinase; in assay [6]; in assay [7]; in [8]) was > 30 µM (inactive) throughout.
`CN(C)C(=O)c1cc2cnc(Nc3ccc(N4CCNCC4)cn3)nc2n1C1CCCC1` [RIBOCICLIB]: the Kd (in [1]; in assay [2]; in assay [3]; in [4]; on LIM domain kinase 1; in [5]) was > 30 µM (inactive) throughout. The Kd (on Pyridoxal kinase; in assay [6]; in [7]; in assay [8]) was > 30 µM (inactive) throughout.
Take `COCCNCc1ccc(-c2cc3nccc(Oc4ccc(NC(=S)NC(=O)Cc5ccc(F)cc5)cc4F)c3s2)nc1` [GLESATINIB]: the Kd (in assay [1]; in assay [2]; in [3]; in assay [4]; on LIM domain kinase 1; in assay [5]) was > 30 µM (inactive) each time. In addition, the Kd (at Pyridoxal kinase; in assay [6]; in [7]; in assay [8]) was > 30 µM (inactive) each time.
For the compound `Cn1cc(-c2ccc3nnc(C(F)(F)c4ccc5ncccc5c4)n3n2)cn1` [JNJ-38877605], the Kd (in assay [1]; in assay [2]; in assay [3]; in assay [4]; at LIM domain kinase 1; in assay [5]) was > 30 µM (inactive) each time. Also, the Kd (at Pyridoxal kinase; in assay [6]; in assay [7]; in assay [8]) was > 30 µM (inactive) in each case.
